The source of these data is DBAASP.

Among the test systems are Escherichia coli; Bacillus cereus; Staphylococcus aureus.
Holding throughout (assay): ≥ marks a high value that may be exact or a test limit, other limits are often not marked, values filed in µg/mL are converted to µM
Assay [1] relates to Candida albicans ATCC 90028.
The subject of assay [2] is Staphylococcus aureus ATCC 25923.
Assay [3] relates to Escherichia coli ATCC 25726.
Assay [4] relates to Acinetobacter baumannii NM35.
Assay [5] concerns Acinetobacter baumannii NM8.

SMILES strings stand for the structures. ≈ marks a conversion by molar mass, not a printed value. A value given as a limit tells only on which side of the number the result lay.

What is called MIC is the least concentration at which growth counts as inhibited. A low value points to a more susceptible organism. For the compound `CC[C@H](C)[C@H](NC(=O)[C@H](Cc1ccccc1)NC(=O)[C@H](CCCN=C(N)N)NC(=O)[C@H](CO)NC(=O)[C@@H](NC(=O)[C@H](C)NC(=O)[C@H](C)NC(=O)[C@H](CCCCN)NC(=O)[C@@H](NC(=O)[C@H](CS)NC(=O)[C@@H](NC(=O)[C@@H]1CCCN1C(=O)[C@H](CO)NC(=O)[C@H](Cc1ccc(O)cc1)NC(=O)[C@@H](N)CC(C)C)[C@@H](C)O)C(C)C)C(C)C)C(=O)NCC(=O)N[C@@H](CCCCN)C(=O)N[C@H](C(=O)N[C@@H](CO)C(=O)N[C@@H](C)C(=O)O)C(C)C` [LYSPTCVKAAVSRFIGKVSA], the figures for the minimum inhibitory concentration (MIC) against Escherichia coli and against Bacillus cereus were greater than 122 µM and no less than 122 µM, respectively.

Consider `CC[C@H](C)[C@H](NC(=O)CNC(=O)[C@H](CCCCN)NC(=O)[C@@H](NC(=O)[C@H](CC(C)C)NC(=O)[C@H](CO)NC(=O)CNC(=O)[C@H](CC(C)C)NC(=O)CNC(=O)[C@H](CCCCN)NC(=O)[C@H](CCCCN)NC(=O)[C@H](Cc1ccccc1)NC(=O)[C@@H](NC(=O)[C@H](CCCCN)NC(=O)[C@H](CCCCN)NC(=O)[C@H](CC(C)C)NC(=O)CN)[C@@H](C)CC)C(C)C)C(=O)N[C@@H](C)C(=O)N[C@@H](C)C(=O)N[C@@H](Cc1cnc[nH]1)C(=O)N[C@H](C(=O)N[C@@H](C)C(=O)N[C@@H](CO)C(N)=O)C(C)C` [GLKKIFKKGLGSLVKGIAAHVAS], for which the minimal inhibitory concentration (MIC) in assay [1] is 10 µM (≈ 23.2 µg/mL); in assay [2], 250 µM (≈ 580 µg/mL); in assay [3], 10 µM (≈ 23.2 µg/mL); in assay [4], 2.5 µM (≈ 5.8 µg/mL); in assay [5] it was 5 µM (≈ 11.6 µg/mL).

As for `CC[C@H](C)[C@H](NC(=O)[C@H](CC(C)C)NC(=O)[C@H](CCCN=C(N)N)NC(=O)[C@H](CCC(=O)O)NC(=O)[C@H](CC(C)C)NC(=O)[C@@H](NC(=O)[C@@H]1CCCN1C(=O)[C@H](CC(C)C)NC(=O)[C@H](C)NC(=O)[C@H](Cc1ccccc1)NC(=O)[C@H](C)NC(=O)[C@H](C)NC(=O)[C@@H](NC(=O)[C@H](CCCCN)NC(=O)CNC(=O)[C@@H](NC(=O)CNC(=O)[C@@H](NC(=O)[C@H](C)NC(=O)[C@H](C)N)[C@@H](C)O)[C@@H](C)O)[C@@H](C)O)C(C)C)C(=O)O` [AATGTGKTAAFALPVLERLI], the values for the MIC with Escherichia coli and with Bacillus cereus were greater than 128 µM and no less than 128 µM, respectively.

As to `CC(C)C[C@H](NC(=O)[C@@H](N)Cc1ccccc1)C(=O)NCC(=O)N[C@@H](CCCCN)C(=O)N[C@H](C(=O)N[C@@H](Cc1ccccc1)C(=O)N[C@@H](CCCCN)C(=O)N[C@@H](CCCCN)C(=O)N[C@H](C(=O)N[C@@H](CO)C(=O)N[C@@H](CCCCN)C(=O)N[C@H](C(=O)N[C@@H](Cc1ccccc1)C(=O)N1CCC[C@H]1C(=O)N[C@@H](C)C(=O)N[C@H](C(=O)N[C@@H](Cc1ccccc1)C(=O)NCC(=O)N[C@@H](CCCCN)C(=O)N[C@H](C(=O)O)C(C)C)C(C)C)C(C)C)C(C)C)C(C)C` [FLGKVFKKVSKVFPAVFGKV], the minimum inhibitory concentration (MIC) was greater than 57.5 µM against Staphylococcus aureus, 14.4 µM (≈ 32 µg/mL) against Escherichia coli and no less than 57.5 µM with Bacillus cereus.
